# Results: patent publication US11560391B2, “Sulfonylurea compounds as inhibitors of interleukin-1 activity” (Genentech, Inc., priority 2018, dated 2023)
# Where two headings read alike, the source gives them in different places.
# How the values were obtained:
# NLRP3 inflammasome = target: T1, NLRP3 inflammasome (Homo sapiens, UniProt Q96P20); test: NLRP3 inflammasome activation assay in LPS-primed, nigericin-stimulated PBMCs, IL-1β release; format: cell-based; settings: PBMC, LPS priming, 10 μM nigericin
# T1 construct: freshly isolated from human peripheral blood from healthy donors; StemCells Technologies; host or cells: primary human PBMCs
# Summary of the method: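 Fresh or cryopreserved human PBMCs primed with 100 ng/mL LPS for 3 h, pre-incubated 30 min with compound (0.00017-10 uM, or 2-fold 20-point series from 40 μM), then stimulated with 10 μM nigericin for 1.5 h at 37 °C. Supernatant IL-1β measured by ELISA or by HTRF (665/620 ratio).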
# PBMCs = test: CTG (CellTiter-Glo) viability assay of compound-treated LPS and nigericin stimulated PBMCs; format: cell-based, human; settings: Homo sapiens, PBMC; read-out: PMBC CTG IC50
# Procedure: Human peripheral blood mononuclear cells (PBMCs), consisting of lymphocytes (T, B and NK cells), monocytes and dendritic cells, are freshly isolated from human peripheral blood from healthy donors. Cells are obtained through an IRB approved donor program by iXCells Biotechnologies where all the donors are tested for bacterial and viral infections. Cells are purified from peripheral blood using ficoll gradient centrifugation.
# Fresh or cryopreserved PMBCs are seeded in V-bottom 96-well plate at 0.5-1×10^5 cells per well and incubated overnight at 37° C. with 5% CO2 in RPMI 1640 medium with GlutaMAX supplement, 4.5 g/L D-glucose, 10% Fetal Bovine Serum (FBS), […] Sodium Pyruvate, 1% Penicillin/Streptomycin, 10 mM HEPES and 0.05 mM of […]. Freshly isolated or cryopreserved KCs cells are seeded in flat-bottom 96-well plates at 0.6-1.5×10^5 cells/well and incubated overnight at 37° C., 5% CO2 in RPMI 1640 Medium with GlutaMAX supplement, FBS, 1% Penicillin/Streptomycin and 10 mM HEPES. The following day, the cells are primed with 100 ng/mL of lipopolysaccharides (LPS; Sigma Aldrich) in FBS-free RPMI 1640 for 3 h. After the priming step, the media is removed and PBMCs are pre-incubated with serial concentrations of test compounds (0.00017-10 uM) or vehicle (DMSO) for 30 min in FBS-free media prior to addition of the NLRP3 activator. Cells are then stimulated with 10 μM Nigericin (Sigma Aldrich; InvivoGen) for 1.5 h. Plates were centrifuged at 1,500 rpm for 3 minutes to pellet cells and supernatant was transferred into new plates for subsequent experiments.
# Viability of compound treated cells is measured using CellTiter-Glo® assay (Promega, Madison, Wis.) that measures the ATP content of cells which is proportional to the number of live cells within a well. This is a counter-screen to establish that the reduction of IL-1β levels in LPS and nigericin stimulated and compound treated cells is not due to cytotoxicity, but rather through the inhibition of the inflammasome pathway. Compounds inhibiting NRLP3 inflammasome activation ultimately increase the viability of LPS and nigericin stimulated cells by blocking NLRP3 mediated pyroptosis that would otherwise lead to cell lysis.
# THP-1 ASC-GFP cells = test: THP-1 ASC-GFP speck assay (NLRP3 inflammasome activation, nigericin); format: cell-based; settings: THP1-ASC-GFP; PMA-differentiated, LPS primed, 10 μM nigericin
# Procedure: THP-1 ASC-GFP cell line was purchased from Invivogen, San Diego, for infammasome activation assay. THP-1 ASC-GFP cells stably express a 37.6 kDa ASC::GFP fusion protein that enables monitoring of spec formation by microscopy after activation of NLRP3 dependent inflammasome pathway. Cells were maintained at a density of 600,000 cells/mL in growth media consisting of RPMI 1640, 2 mM L-glutamine, 25 mM HEPES and 10% heat inactivated fetal bovine serum at 37° C. and 5% CO2. Cells were passaged every 3-4 days and used for assays for up to 20 passages.
# THP-1 ASC-GFP cells were collected by centrifuging cells at 800 RPM for 5 minutes. Cell culture supernatant was removed and cells were re-suspended in fresh media at density of 1×10^6 cells/mL in assay media consisting of RPMI 1640, 2 mM L-glutamine, 25 mM HEPES and 10% heat inactivated fetal bovine serum. Phorbol 12-myristate 13-acetate (PMA) (Invivogen,tlrl-pma) was added to the cell suspension at a final concentration of 500 ng/ml and mixed thoroughly. 40,000 cells were added per well of a 384 well plate and differentiated into macrophages overnight at 37° C. and 5% CO2. Cells were primed with 1 μg/mL of lipopolysaccharide (Invivogen Ultrapure lipopolysaccharide from E. coli, tlrl-3pelps) in assay media for 3 hours at 37° C. and 5% CO2. After priming, media was removed and THP-1 ASC-GFP cells were preincubated with serially diluted test compounds with starting concentration of 40 μM followed by 2-fold dilution for a 20-point curve or vehicle (DMSO) for 30 min in assay media at 37° C. and 5% CO2. Cells were then stimulated with 10 μM nigericin (Invivogen, tlrl-nig-5) for 90 min at 37° C. and 5% CO2 to activate NLRP3 dependent inflammasome pathway and spec formation. After stimulation, cells were fixed with 4.8% paraformaldehyde (Electron Microscopy Sciences #15710-S) and incubated at room temperature for 15 min. Cells were then washed 3-times with 100 μL of phosphate buffered saline and permeabilized in the presence of premeablization/block buffer for 20 min at room temperature. Cells were then washed 3-times with 100 μL phosphate buffered saline and incubated for 1 hr at room temperature in the presence of hoechst. After staining with Hoechst, cells were washed 3-times with 100 μL phosphate buffered saline and imaged for ASC spec formation.
# THP-1 ASC-GFP cells were imaged in 488 and Hoechst channels. Hoechst channel was used for cell count and 488 channel was used to identify number of GFP ASC specks in imaged fields. Percentage of cells with a spec was calculated by dividing the number of GFP positive spots by total number of cells.
# T1 sequence (Q96P20 whole entry): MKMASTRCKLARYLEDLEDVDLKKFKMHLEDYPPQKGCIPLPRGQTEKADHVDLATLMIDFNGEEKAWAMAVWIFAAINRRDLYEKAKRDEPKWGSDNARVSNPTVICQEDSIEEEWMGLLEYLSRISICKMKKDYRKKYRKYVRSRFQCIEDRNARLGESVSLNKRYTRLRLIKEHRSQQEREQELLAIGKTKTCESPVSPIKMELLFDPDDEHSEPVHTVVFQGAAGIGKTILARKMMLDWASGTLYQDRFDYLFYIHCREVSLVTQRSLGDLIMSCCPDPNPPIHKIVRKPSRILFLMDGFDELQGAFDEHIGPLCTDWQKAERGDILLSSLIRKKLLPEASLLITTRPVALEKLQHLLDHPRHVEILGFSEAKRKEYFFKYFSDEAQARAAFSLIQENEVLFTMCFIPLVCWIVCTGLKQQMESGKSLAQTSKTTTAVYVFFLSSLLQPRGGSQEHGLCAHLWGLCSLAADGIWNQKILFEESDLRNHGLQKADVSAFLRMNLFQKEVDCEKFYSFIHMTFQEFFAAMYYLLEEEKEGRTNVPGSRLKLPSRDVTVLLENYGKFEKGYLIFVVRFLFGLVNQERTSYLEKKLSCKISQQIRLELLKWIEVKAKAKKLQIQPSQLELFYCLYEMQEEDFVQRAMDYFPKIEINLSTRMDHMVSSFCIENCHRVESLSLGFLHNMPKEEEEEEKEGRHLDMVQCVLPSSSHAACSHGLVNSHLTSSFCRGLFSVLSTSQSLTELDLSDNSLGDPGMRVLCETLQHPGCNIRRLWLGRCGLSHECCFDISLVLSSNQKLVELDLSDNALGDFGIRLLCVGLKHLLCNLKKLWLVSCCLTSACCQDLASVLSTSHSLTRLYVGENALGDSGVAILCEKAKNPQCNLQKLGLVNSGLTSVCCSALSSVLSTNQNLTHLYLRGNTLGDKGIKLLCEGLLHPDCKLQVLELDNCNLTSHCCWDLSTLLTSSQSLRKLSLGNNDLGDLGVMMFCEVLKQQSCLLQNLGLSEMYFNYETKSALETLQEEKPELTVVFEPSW
IC50 (NLRP3 inflammasome; read-out: PMBC IL-1β IC50) [µM],IC50 (THP-1 ASC-GFP cells) [nM],SMILES,IC50 (PBMCs) [nM],IC50 (NLRP3 inflammasome; PMBC IL-1β IC50 (μM)) [µM]
1.24,400,"CCn1nc(C(C)C)c(NC(=O)NS(=O)(=O)c2cnn3c2OC[C@@H](OC)C3)c1C(C)C [Example 39a, (S)—N-((1-ethyl-3,5-diisopropyl-1H-pyrazol-4-yl)carbamoyl)-6-methoxy-6,7-dihydro-5H-pyrazolo[5,1-b][1,3]oxazine-3-sulfonamide]",970,
0.37,680,"CN[C@@H]1COc2c(S(=O)(=O)NC(=O)Nc3c(C(C)C)cc(OC)nc3C(C)C)cnn2C1 [Example 41a, (S)—N-((2,4-diisopropyl-6-methoxypyridin-3-yl)carbamoyl)-6-(methylamino)-6,7-dihydro-5H-pyrazolo[5,1-b][1,3]oxazine-3-sulfonamide]",13,
0.12,1100,"COc1cc(C(C)C)c(NC(=O)NS(=O)(=O)c2cnn3c2OC[C@@H](N2CC(OC)C2)C3)c(C(C)C)n1 [Example 42a, Sodium (S)—N-((2,4-diisopropyl-6-methoxypyridin-3-yl)carbamoyl)-6-(3-methoxyazetidin-1-yl)-6,7-dihydro-5H-pyrazolo[5,1-b][1,3]oxazine-3-sulfonamide]",240,

# Further lines, the compound ahead of its results:
SMILES,IC50 (NLRP3 inflammasome; read-out: PMBC IL-1β IC50) [µM],IC50 (THP-1 ASC-GFP cells) [nM],IC50 (PBMCs) [nM],IC50 (NLRP3 inflammasome; PMBC IL-1β IC50 (μM)) [µM]
"CC(C)c1cc(C#N)nc(C(C)C)c1NC(=O)NS(=O)(=O)c1cnn2c1OCCC2 [Example 49, N-((6-cyano-2,4-diisopropylpyridin-3-yl)carbamoyl)-6,7-dihydro-5H-pyrazolo[5,1-b][1,3]oxazine-3-sulfonamide]",1.25,2500,560,
"CC(C)c1nn(CC2CC2)c(C(C)C)c1NC(=O)NS(=O)(=O)c1cnn2c1OCCC2 [Example 35, N-((1-(cyclopropylmethyl)-3,5-diisopropyl-1H-pyrazol-4-yl)carbamoyl)-6,7-dihydro-5H-pyrazolo[5,1-b][1,3]oxazine-3-sulfonamide]",0.95,1400,120,
"Cc1onc(-c2ccccc2)c1NC(=O)NS(=O)(=O)c1cnn2c1OCCC2 [Example 8, N-((5-methyl-3-phenylisoxazol-4-yl)carbamoyl)-6,7-dihydro-5H-pyrazolo[5,1-b][1,3]oxazine-3-sulfonamide]",> 10,> 20000,> 10000,
"CC(C)c1nn(C(C)C)c(C(C)C)c1NC(=O)NS(=O)(=O)c1cnn2c1OCCC2 [Example 33, N-((1,3,5-triisopropyl-1H-pyrazol-4-yl)carbamoyl)-6,7-dihydro-5H-pyrazolo[5,1-b][1,3]oxazine-3-sulfonamide]",4.96,4000,4510,
"CCn1nc(C(C)C)c(NC(=O)NS(=O)(=O)c2cnn3c2OCCC3)c1C(C)C [Example 34, N-((1-ethyl-3,5-diisopropyl-1H-pyrazol-4-yl)carbamoyl)-6,7-dihydro-5H-pyrazolo[5,1-b][1,3]oxazine-3-sulfonamide]",3.19,3700,1980,
"CCOc1cc(C(C)C)c(NC(=O)NS(=O)(=O)c2cnn3c2OCCC3)c(C(C)C)n1 [Example 50, N-((6-ethoxy-2,4-diisopropylpyridin-3-yl)carbamoyl)-6,7-dihydro-5H-pyrazolo[5,1-b][1,3]oxazine-3-sulfonamide]",2.81,4700,1180,
"COc1cc(OC)nc(NC(=O)NS(=O)(=O)c2cnn3c2OCCC3)n1 [Example 18, N-((4,6-dimethoxypyrimidin-2-yl)carbamoyl)-6,7-dihydro-5H-pyrazolo[5,1-b][1,3]oxazine-3-sulfonamide]",,> 20000,,> 10
"O=C(Nc1nc(Cl)cc(Cl)n1)NS(=O)(=O)c1cnn2c1OCCC2 [Example 4, N-((4,6-dichloropyrimidin-2-yl)carbamoyl)-6,7-dihydro-5H-pyrazolo[5,1-b][1,3]oxazine-3-sulfonamide]",> 10,> 20000,,
